By chromatographic logP is commonly meant lipophilicity estimated from chromatographic retention. Higher therefore signals higher lipophilicity.

Consider 13 compounds from patent US9930890B2 (priority 2010, dated 2018).

One data set has as its system Phytophthora infestans. Type of data set: in vivo. Conditions: tomato plants, protective spray, active ingredient concentration 100 ppm, evaluation 7 days after inoculation; 0% = control, 100% = no infection.
Another data set deals with Plasmopara viticola. The data set is described as follows: Plasmopara test (grapevine)/protective. Type of data set: in vivo. Conditions: grapevine young plants, protective spray, active ingredient concentration 10 ppm, evaluation 6 days after inoculation; 0% = control, 100% = no infection. The essentials: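 Young grapevine plants sprayed with emulsified formulation at the stated rate, dried, then inoculated with P. viticola spores; 1 day at approx. 20° C/100% RH, 4 days greenhouse approx. 21° C/90% RH, moistened, 1 more day in cabin. Efficacy scored 6 days post-inoculation (0% = untreated control, 100% = no infection).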

For a further data set, the system named is Peronospora brassicae. Description: Peronospora test (oilseed rape seeds)/seed treatment. To be noted: seed treatment, dose 50 g/dt, infected leaf area per plant after 7 days incubation, 0% = control, 100% = no disease. Type of data set: in vivo. As to the method:
Peronospora Test (Oilseed Rape Seeds)/Seed Treatment
The test was conducted under greenhouse conditions.
Oilseed rape seeds treated with an inventive active compound or a combination of inventive active compounds dissolved in N-methyl-2-pyrrolidone and diluted with water to the desired dose were sown in 6*6 cm vessels. The vessels contain 4 cm of a 1:1 mixture of steam-treated field soil and sand. The plants grew at 10° C.
14-day-old plants were inoculated with an aqueous spore suspension of Peronospora brassicae. The vessels containing the plants were incubated in a greenhouse at a temperature of 15° C. and a relative air humidity of 100% for 7 days.
The assessment of the test included the evaluation of the infected leaf area per plant. 0% means an efficiency corresponding to that of the control, while an efficiency of 100% means that no disease is observed.

For data set [1] the following is noted: for logp [a]: pH 2.7; for logp [b]: pH 7.8.

For `O=C(Cn1nc(C(F)F)cc1C(F)F)N1CCC(c2nc(C3=NOC(c4ccccc4C=NO)C3)cs2)CC1` (mixture of isomers) [I-4], the Eff. % in the data set on Phytophthora infestans turned out to be 100%; in the data set with Plasmopara viticola it was 100%; in the data set on Peronospora brassicae it was 92%.

For `Cc1cc(C(F)(F)F)nn1CC(=O)N1CCC(c2nc(C3=NOC(c4ccccc4C=NO)C3)cs2)CC1` (mixture of isomers) [I-38], the Eff. % in the data set on Phytophthora infestans was determined as 100%; in the data set on Plasmopara viticola, 95%; in the data set on Peronospora brassicae, 86%.

Take `CON=Cc1cccc(F)c1C1CC(c2csc(C3CCN(C(=O)Cn4nc(C(F)F)cc4C(F)F)CC3)n2)=NO1` (mixture of isomers) [I-60]: the Eff. % in the data set with Phytophthora infestans stood at 84%; with Plasmopara viticola, 100%; with Peronospora brassicae, 95%. Also, the “logp [a]” value in data set [1] was 3.49[a],. For the same compound, the “logp [b]” value in data set [1] is 3.38[b].

As to `Cc1cc(C(F)(F)F)nn1CC(=O)N1CCC(c2nc(C3=NOC(c4ccccc4OS(=O)(=O)C4CC4)C3)cs2)CC1` (racemic) [I-61], the Eff. % with Phytophthora infestans is on record as 89%; in the data set with Plasmopara viticola, 100%; with Peronospora brassicae it was 90%. Also, in data set [1], the “logp [a]” value is 3.29[a],. The “logp [b]” value in data set [1] was 3.31[b].

On to `Cc1cc(C(F)(F)F)nn1CC(=O)N1CCC(c2nc(C3=NOC(c4ccccc4OS(C)(=O)=O)C3)cs2)CC1` (racemic) [I-62], for which the Eff. % was 89% in the data set on Phytophthora infestans, 100% in the data set on Plasmopara viticola and 90% in the data set on Peronospora brassicae. Besides, in data set [1], the “logp [a]” value is 3.07[a],. Besides, the “logp [b]” value in data set [1] is 2.98[b].

As for `C[Si](C)(C)C#CCOc1ccccc1C1CC(c2csc(C3CCN(C(=O)Cn4nc(C(F)F)cc4C(F)F)CC3)n2)=NO1` (stereo not shown) [I-1, 2-[3,5-Bis(difluoromethyl)-1H-pyrazol-1-yl]-1-(4-{4-[5-(2-{[3-(trimethylsilyl)prop-2-yn-1-yl]oxy}phenyl)-4,5-dihydro-1,2-oxazol-3-yl]-1,3-thiazol-2-yl}piperidin-1-yl)ethanone], the chromatographic logP in the data set “physchem” (pH 2.7) was determined as 4.71; in “physchem” (pH 7.8), 4.58.

As for `CC(C)(C)OC(=O)Nc1ccc(C2CC(c3csc(C4CCN(C(=O)Cn5nc(C(F)F)cc5C(F)F)CC4)n3)=NO2)cc1` (stereo not shown) [I-17, tert-Butyl (4-{3-[2-(1-([3,5-bis(difluoromethyl)-1H-pyrazol-1-yl]acetyl}piperidin-4-yl)-1,3-thiazol-4-yl]-4,5-dihydro-1,2-oxazol-5-yl)phenyl)carbamate], the results for the chromatographic logP in the data set “physchem” (pH 2.7) and in the data set “physchem” (pH 7.8) were 3.45 and 3.46, respectively.

Take `CON=Cc1ccccc1C1CC(c2csc(C3CCN(C(=O)Cn4nc(C(F)F)cc4C(F)F)CC3)n2)=NO1` (stereo not shown) [I-26, 2-{3-[2-(1-{[3,5-Bis(difluoromethyl)-1H-pyrazol-1-yl]acetyl}piperidin-4-yl)-1,3-thiazol-4-yl]-4,5-dihydro-1,2-oxazol-5-yl}benzaldehyde O-methyloxime]: the Eff. % in the data set with Plasmopara viticola stood at 100%. In addition, the chromatographic logP in the data set “physchem” (pH 2.7) was 3.59.

In the data set with Plasmopara viticola, `CON=Cc1ccccc1C1CC(c2csc(C3CCN(C(=O)Nc4cc(Cl)ccc4C)CC3)n2)=NO1` (stereo not shown) [I-41, N-(5-Chloro-2-methylphenyl)-4-[4-(5-{2-[(methoxyimino)methyl]phenyl}-4,5-dihydro-1,2-oxazol-3-yl)-1,3-thiazol-2-yl]piperidine-1-carboxamide] came in with an Eff. % of 81%. The chromatographic logP in “physchem” (pH 2.7) came to 3.95.

Consider `CCS(=O)(=O)Oc1ccccc1C1CC(c2csc(C3CCN(C(=O)Cn4nc(C(F)F)cc4C(F)F)CC3)n2)=NO1` (stereo not shown) [I-65], for which the Eff. % in the data set with Phytophthora infestans came out at 100%; in the data set with Plasmopara viticola it was 100%; with Peronospora brassicae, 90%. Also, in data set [1], the “logp [a]” value was 3.1[a],. Moreover, the “logp [b]” value in data set [1] is 3.09[b].

As to `CS(=O)(=O)Oc1ccccc1C1CC(c2csc(C3CCN(C(=O)Cn4nc(C(F)F)cc4C(F)F)CC3)n2)=NO1` (stereo not shown) [I-124], the Eff. % with Phytophthora infestans, in the data set with Plasmopara viticola and with Peronospora brassicae was 100% throughout. Besides, the “logp [a]” value in data set [1] is 2.86[a],. Also, in data set [1], the “logp [b]” value was 2.86[b].

As to `C#CCOCc1ccccc1C1CC(c2csc(C3CCN(C(=O)Cn4nc(C(F)F)cc4C(F)F)CC3)n2)=NO1` (stereo not shown) [I-138], the Eff. % came to 93% in the data set with Phytophthora infestans and 98% in the data set on Plasmopara viticola. Further, the “logp [a]” value in data set [1] was 3.74[a].

Regarding `Cc1cc(C(F)(F)F)nn1CC(=O)N1CCC(c2nc(C3=NOC(c4ccccc4OCC#N)C3)cs2)CC1` (stereo not shown) [I-140], the Eff. % in the data set on Phytophthora infestans is 84%; in the data set on Plasmopara viticola it was 100%. Moreover, the “logp [a]” value in data set [1] is 2.97[a],. For the same compound, the “logp [b]” value in data set [1] was 2.98[b].
